One series has as its system Oreochromis niloticus. Briefly: Toxicity in Tilapia nilotica at 1 ppm within 75 mins. In kind it is organism-based. Conditions: in vivo, 1.25 h.
For another series, the system named is Globisporangium ultimum. The series can be described thus: Antifungal activity against Pythium ultimum at 1 mg. In kind it is functional. As to conditions: read-out: IZ.

Each structure is given as a SMILES string.

For `CCCCCCCCCCCC1=C(O)C(=O)C=C(OC)C1=O` [5-O-METHYLEMBELIN], in the series with Oreochromis niloticus, the Activity result is given as “Toxic”. For the same compound, the zone of inhibition at 1000 µg/disc in the series on Globisporangium ultimum is 8 mm.

For the origin of these results see ChEMBL document CHEMBL1147290, “Toxicants from mangrove plants, V. Isolation of the piscicide, 2-hydroxy-5-methoxy-3-undecyl-1,4 benzoquinone (5-O-methylembelin) from Aegiceras corniculatum” (J Nat Prod, 1989).
